{
  "source": "ChEMBL document CHEMBL5696442",
  "about": "“Discovery of type II inhibitors of TGFβ-activated kinase 1 (TAK1) and mitogen-activated protein kinase kinase kinase kinase 2 (MAP4K2)” (J Med Chem, 2015)",
  "key": {"[1]": {"tested_on": "Receptor-type tyrosine-protein kinase FLT3 (Homo sapiens), P36888 [D835Y]", "test": "Inhibition of FLT3 D835Y mutant (unknown origin) at 10 uM by Ambit Kinomescan binding assay relative to control"}, "[2]": {"target": "cGMP-dependent protein kinase 1 (Homo sapiens) (UniProt Q13976)", "sequence (Q13976 whole entry)": "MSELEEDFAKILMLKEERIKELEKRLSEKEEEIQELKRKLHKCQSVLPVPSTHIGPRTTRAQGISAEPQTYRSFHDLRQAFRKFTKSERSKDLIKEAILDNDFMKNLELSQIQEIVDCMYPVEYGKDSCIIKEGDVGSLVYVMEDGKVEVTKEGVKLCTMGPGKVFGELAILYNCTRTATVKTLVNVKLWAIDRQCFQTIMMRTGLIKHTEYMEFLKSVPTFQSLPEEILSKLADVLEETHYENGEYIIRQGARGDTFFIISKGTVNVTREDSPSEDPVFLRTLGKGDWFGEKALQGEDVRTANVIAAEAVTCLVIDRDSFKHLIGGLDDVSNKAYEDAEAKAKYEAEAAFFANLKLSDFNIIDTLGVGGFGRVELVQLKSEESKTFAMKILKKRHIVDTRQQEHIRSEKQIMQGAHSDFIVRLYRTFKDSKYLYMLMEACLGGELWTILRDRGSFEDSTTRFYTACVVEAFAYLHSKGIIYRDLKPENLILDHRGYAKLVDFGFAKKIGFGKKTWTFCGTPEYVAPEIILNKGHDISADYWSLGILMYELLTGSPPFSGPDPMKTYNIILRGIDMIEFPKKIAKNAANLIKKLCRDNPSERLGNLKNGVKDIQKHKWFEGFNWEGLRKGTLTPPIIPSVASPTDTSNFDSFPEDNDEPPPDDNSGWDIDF", "test": "Inhibition of PRKG1 (unknown origin) at 10 uM by Ambit Kinomescan binding assay"}, "[3]": {"target": "TGF-beta receptor type-1 (Homo sapiens) (UniProt P36897)", "sequence (P36897 whole entry)": "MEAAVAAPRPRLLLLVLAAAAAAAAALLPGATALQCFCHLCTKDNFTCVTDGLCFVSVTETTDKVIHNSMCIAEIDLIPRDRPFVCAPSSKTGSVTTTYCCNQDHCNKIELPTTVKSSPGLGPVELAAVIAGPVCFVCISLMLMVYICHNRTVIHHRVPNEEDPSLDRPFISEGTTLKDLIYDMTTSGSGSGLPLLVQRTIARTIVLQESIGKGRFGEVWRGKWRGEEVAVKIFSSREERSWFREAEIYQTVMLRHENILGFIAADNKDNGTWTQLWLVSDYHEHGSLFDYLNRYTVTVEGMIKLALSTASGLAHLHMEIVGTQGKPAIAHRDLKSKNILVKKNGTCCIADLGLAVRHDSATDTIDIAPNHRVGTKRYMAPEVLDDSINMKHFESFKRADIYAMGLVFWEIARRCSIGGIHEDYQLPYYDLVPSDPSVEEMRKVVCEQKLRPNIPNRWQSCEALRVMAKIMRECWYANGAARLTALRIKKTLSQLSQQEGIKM", "test": "Inhibition of TGFBR1 (unknown origin) at 10 uM by Ambit Kinomescan binding assay"}, "[4]": {"target": "T1, Serine/threonine-protein kinase Chk1 (Homo sapiens) (UniProt O14757)", "T1 sequence (whole entry)": "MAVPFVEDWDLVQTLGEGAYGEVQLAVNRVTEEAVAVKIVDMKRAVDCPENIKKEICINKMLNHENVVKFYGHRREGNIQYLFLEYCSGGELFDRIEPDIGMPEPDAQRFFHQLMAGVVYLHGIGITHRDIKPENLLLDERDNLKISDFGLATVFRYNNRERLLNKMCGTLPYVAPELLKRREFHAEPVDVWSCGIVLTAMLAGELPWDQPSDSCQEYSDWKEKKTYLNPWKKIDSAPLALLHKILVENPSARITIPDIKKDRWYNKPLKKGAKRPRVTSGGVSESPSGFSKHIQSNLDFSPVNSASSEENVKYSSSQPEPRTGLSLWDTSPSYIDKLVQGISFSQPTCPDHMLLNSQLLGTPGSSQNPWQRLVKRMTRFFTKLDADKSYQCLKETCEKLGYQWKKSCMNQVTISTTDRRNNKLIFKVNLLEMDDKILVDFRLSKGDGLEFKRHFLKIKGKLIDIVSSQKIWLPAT", "test": "Inhibition of CHK1 Lys2 labeling site harbouring DIKPENLLLDERDNLK in human A-375 cells at 5 uM by KiNativ Profiling analysis relative to control", "type": "cell-based"}, "[5]": {"target": "Hepatocyte growth factor receptor (Homo sapiens) (UniProt P08581)", "test": "Inhibition of MET ACT labeling site in human A-375 cells at 0.5 uM by KiNativ Profiling analysis relative to control", "type": "cell-based"}, "[6]": {"target": "T2, PAN2-PAN3 deadenylation complex subunit PAN3 (Homo sapiens) (UniProt Q58A45)", "T2 sequence (whole entry)": "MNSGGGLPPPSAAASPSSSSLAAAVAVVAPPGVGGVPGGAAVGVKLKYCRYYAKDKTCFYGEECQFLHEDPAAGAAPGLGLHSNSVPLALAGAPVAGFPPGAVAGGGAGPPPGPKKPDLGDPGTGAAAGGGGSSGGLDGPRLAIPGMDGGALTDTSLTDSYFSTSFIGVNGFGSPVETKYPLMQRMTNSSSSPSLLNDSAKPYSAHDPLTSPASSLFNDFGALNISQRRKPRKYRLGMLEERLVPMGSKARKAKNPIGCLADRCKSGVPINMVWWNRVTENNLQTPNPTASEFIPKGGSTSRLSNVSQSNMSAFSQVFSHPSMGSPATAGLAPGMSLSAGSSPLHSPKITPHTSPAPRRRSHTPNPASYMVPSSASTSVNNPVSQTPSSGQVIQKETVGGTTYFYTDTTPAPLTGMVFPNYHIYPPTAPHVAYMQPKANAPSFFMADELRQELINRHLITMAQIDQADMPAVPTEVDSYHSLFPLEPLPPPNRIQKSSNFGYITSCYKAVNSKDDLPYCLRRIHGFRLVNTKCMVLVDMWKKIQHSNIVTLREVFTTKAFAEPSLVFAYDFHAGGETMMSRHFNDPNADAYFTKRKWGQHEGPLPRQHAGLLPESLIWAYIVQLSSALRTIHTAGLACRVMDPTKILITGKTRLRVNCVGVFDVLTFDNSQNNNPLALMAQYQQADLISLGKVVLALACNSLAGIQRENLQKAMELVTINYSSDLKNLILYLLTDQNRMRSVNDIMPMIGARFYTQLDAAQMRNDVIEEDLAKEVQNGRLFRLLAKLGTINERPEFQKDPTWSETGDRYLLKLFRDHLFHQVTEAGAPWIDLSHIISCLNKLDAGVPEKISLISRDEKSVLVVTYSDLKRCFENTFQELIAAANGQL", "test": "Inhibition of PAN3 KD labeling site in human Huh-7 cells at 1 uM by KiNativ Profiling analysis relative to control", "type": "cell-based"}, "[7]": {"target": "Ribosomal protein S6 kinase alpha-1 (Homo sapiens) (UniProt Q15418)", "sequence (Q15418 whole entry, the tested form may be a part)": "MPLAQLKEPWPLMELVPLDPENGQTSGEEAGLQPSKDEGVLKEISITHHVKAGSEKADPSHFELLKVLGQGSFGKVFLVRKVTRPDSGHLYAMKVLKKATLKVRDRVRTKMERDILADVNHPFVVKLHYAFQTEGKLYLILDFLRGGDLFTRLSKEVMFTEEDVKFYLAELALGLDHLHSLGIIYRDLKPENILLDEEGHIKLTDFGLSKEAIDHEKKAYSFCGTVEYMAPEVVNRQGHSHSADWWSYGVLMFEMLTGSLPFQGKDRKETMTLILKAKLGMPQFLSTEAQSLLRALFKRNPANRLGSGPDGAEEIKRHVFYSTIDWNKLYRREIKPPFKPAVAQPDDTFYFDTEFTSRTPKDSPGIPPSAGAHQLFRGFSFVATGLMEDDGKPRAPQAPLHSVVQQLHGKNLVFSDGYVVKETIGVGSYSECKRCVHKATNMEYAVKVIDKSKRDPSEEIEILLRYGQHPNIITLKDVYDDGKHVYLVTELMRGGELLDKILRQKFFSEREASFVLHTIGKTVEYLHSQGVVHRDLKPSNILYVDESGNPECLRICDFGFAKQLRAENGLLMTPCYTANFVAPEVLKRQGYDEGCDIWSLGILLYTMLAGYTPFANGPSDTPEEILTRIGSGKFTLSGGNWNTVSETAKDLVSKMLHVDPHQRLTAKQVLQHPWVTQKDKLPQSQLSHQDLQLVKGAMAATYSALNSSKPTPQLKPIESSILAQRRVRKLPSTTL", "test": "Inhibition of RSK1 Domain 1 ACT labeling site harbouring LTDFGLSKEAIDHEKK in human Huh-7 cells at 1 uM by KiNativ Profiling analysis relative to control", "type": "cell-based"}, "[8]": {"target": "5'-AMP-activated protein kinase catalytic subunit alpha-1 (Homo sapiens) (UniProt Q13131)", "sequence (Q13131 whole entry, looked up)": "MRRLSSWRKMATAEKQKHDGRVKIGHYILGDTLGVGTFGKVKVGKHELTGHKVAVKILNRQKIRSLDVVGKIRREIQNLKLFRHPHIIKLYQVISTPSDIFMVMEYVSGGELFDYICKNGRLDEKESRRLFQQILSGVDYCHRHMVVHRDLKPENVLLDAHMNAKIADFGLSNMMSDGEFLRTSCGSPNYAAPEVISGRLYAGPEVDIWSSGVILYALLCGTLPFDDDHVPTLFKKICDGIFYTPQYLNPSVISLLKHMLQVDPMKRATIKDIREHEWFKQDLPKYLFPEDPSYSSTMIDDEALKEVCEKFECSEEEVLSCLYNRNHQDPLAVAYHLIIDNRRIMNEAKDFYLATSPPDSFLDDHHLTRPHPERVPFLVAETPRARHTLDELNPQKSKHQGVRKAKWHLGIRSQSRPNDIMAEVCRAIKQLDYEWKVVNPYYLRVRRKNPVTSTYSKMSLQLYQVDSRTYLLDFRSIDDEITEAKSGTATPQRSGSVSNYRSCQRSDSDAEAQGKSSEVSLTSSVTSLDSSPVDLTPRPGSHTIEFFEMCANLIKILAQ", "test": "Inhibition of AMPKa1 Lys1 labeling site in human Huh-7 cell lysate at 1 uM by KiNativ Profiling analysis relative to control", "type": "subcellular"}, "[9]": {"test": "Inhibition of p70S6K ATP labeling site in human Huh-7 cell lysate at 1 uM by KiNativ Profiling analysis relative to control", "details": "condition cancer"}, "[10]": {"target": "T3, Phosphorylase b kinase gamma catalytic chain, liver/testis isoform (Homo sapiens) (UniProt P15735)", "T3 sequence (whole entry)": "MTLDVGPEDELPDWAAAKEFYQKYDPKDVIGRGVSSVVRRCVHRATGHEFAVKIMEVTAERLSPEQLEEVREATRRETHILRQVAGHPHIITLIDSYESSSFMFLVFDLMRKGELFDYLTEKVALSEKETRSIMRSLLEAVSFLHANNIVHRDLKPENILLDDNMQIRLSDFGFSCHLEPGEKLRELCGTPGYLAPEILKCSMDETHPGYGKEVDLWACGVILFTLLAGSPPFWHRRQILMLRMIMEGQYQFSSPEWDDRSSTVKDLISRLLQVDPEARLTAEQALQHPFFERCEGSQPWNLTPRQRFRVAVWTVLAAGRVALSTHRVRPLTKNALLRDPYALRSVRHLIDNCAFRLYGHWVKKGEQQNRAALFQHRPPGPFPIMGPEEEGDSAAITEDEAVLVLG", "test": "Inhibition of PHKg2 Lys1 labeling site in human Huh-7 cell lysate at 1 uM by KiNativ Profiling analysis relative to control", "type": "subcellular"}, "[11]": {"target": "Tyrosine-protein kinase ABL1 (Homo sapiens, UniProt P00519)", "sequence (P00519 whole entry)": "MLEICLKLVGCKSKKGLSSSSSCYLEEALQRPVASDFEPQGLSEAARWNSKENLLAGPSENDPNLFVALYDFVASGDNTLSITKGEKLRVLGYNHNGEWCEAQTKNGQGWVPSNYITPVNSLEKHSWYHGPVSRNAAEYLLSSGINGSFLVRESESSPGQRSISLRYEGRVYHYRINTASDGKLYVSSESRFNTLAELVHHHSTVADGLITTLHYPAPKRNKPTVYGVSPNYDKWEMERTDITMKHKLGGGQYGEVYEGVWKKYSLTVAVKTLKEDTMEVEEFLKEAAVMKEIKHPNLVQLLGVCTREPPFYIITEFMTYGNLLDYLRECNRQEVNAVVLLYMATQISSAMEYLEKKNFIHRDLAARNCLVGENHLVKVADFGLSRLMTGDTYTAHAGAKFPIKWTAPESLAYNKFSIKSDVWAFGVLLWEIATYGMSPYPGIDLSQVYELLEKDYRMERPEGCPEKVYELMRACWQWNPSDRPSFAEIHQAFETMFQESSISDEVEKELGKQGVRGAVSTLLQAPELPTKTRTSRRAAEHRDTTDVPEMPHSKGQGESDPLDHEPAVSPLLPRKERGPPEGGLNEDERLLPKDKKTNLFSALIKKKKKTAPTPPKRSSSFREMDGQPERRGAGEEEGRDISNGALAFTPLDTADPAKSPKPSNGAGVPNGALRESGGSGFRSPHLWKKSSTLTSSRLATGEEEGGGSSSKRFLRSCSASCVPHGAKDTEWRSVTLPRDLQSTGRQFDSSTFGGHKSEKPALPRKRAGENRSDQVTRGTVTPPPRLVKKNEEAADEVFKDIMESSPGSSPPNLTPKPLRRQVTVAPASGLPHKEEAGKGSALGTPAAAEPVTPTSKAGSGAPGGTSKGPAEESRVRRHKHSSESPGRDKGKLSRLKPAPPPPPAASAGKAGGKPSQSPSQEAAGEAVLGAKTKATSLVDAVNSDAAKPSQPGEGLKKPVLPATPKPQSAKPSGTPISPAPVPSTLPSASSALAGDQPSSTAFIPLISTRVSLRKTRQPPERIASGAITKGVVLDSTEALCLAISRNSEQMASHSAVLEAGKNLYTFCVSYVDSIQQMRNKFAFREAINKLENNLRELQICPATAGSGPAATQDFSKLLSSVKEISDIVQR", "test": "Inhibition of nonphosphorylated ABL1 (unknown origin) at 1 uM by Ambit Kinomescan binding assay relative to control"}, "[12]": {"target": "Ribosomal protein S6 kinase beta-1 (Homo sapiens) (UniProt P23443)", "sequence (P23443 whole entry, looked up)": "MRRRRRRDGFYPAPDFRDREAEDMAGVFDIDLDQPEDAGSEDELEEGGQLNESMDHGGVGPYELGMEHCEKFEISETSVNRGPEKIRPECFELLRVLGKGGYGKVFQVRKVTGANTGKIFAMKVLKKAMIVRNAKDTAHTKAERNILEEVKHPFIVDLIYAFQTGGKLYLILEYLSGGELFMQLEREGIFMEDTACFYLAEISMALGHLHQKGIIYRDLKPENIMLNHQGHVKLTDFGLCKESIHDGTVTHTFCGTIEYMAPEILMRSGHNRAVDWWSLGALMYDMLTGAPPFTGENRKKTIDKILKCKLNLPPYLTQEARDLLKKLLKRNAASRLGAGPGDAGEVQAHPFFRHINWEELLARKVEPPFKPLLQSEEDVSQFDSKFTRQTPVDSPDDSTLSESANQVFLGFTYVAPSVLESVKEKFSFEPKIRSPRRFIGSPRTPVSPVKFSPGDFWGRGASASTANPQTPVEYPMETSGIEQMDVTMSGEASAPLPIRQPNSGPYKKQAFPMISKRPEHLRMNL", "test": "Inhibition of S6K1 (unknown origin) at 1 uM by Ambit Kinomescan binding assay relative to control"}, "[13]": {"target": "Serine/threonine-protein kinase 24 (Homo sapiens) (UniProt Q9Y6E0)", "sequence (Q9Y6E0 whole entry, looked up)": "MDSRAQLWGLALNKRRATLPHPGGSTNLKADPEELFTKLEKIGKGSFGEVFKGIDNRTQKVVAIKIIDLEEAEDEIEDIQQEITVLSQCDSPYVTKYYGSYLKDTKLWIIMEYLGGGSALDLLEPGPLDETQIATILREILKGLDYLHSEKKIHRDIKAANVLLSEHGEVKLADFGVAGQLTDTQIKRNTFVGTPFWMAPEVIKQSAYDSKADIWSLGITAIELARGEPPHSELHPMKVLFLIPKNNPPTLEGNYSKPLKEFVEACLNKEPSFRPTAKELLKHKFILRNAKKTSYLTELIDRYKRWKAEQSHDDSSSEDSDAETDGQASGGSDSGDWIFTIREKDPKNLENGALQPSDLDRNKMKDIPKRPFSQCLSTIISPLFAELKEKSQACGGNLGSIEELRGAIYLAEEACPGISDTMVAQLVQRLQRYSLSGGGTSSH", "test": "Inhibition of MST3 ACT labeling site in human A-375 cells at 0.05 uM by KiNativ Profiling analysis relative to control", "type": "cell-based"}, "[14]": {"target": "Wee1-like protein kinase (Homo sapiens) (UniProt P30291)", "test": "Inhibition of Wee1 Lys2 labeling site in human A-375 cells at 0.05 uM by KiNativ Profiling analysis relative to control", "type": "cell-based"}},
  "note": "Activity calls are given as the source filed them. No cut-off for these calls is given here.",
  "data": [
    {"smiles": "CCN1CCN(Cc2ccc(NC(=O)c3ccc(C)c(Oc4ccnc5[nH]ccc45)c3)cc2C(F)(F)F)CC1", "values": [
      {"measurement": "inhibition", "setting": "[1]", "result": 14, "unit": "%"},
      {"measurement": "inhibition", "setting": "[2]", "result": "inactive"},
      {"measurement": "inhibition", "setting": "[3]", "result": "inactive"},
      {"measurement": "inhibition", "setting": "[4]", "result": 32.3, "unit": "%"},
      {"measurement": "inhibition", "setting": "[5]", "result": 14.4, "unit": "%"},
      {"measurement": "inhibition", "setting": "[6]", "result": 13.4, "unit": "%"},
      {"measurement": "inhibition", "setting": "[7]", "result": 6.9, "unit": "%"}
    ]},
    {"smiles": "CNc1cc(Oc2cc(C(=O)Nc3cc(N4CCN(C)CC4)cc(C(F)(F)F)c3)ccc2C)ncn1", "values": [
      {"measurement": "inhibition", "setting": "[8]", "result": 8.7, "unit": "%"},
      {"measurement": "inhibition at 1 µM", "setting": "[9]", "result": 2.8, "unit": "%"},
      {"measurement": "inhibition", "setting": "[10]", "result": 0.2, "unit": "%"}
    ]},
    {"smiles": "CCN1CCN(Cc2ccc(NC(=O)c3ccc(C)c(/C=C/c4cnc5[nH]ccc5c4OC)c3)cc2C(F)(F)F)CC1", "values": [
      {"measurement": "inhibition", "setting": "[11]", "result": 0, "unit": "%"},
      {"measurement": "inhibition", "setting": "[12]", "result": 46, "unit": "%"},
      {"measurement": "inhibition", "setting": "[13]", "result": 13.5, "unit": "%"},
      {"measurement": "inhibition", "setting": "[14]", "result": 19.2, "unit": "%"}
    ]}
  ]
}
